From patent publication US11667602B2, “Compounds and their use” (AstraZeneca AB, priority 2020, dated 2023)
In brackets after ≈: the same amount, converted by molar mass.

Assays:
[1] = Human Plasma Protein Binding (Test B); assay type: in vitro ADME; conditions: fraction unbound (fu)
Procedure, shortened: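 Human plasma protein binding run per the published Wernevik et al. (2020) integrated DMPK panel protocol. Values are fraction unbound (fu, % free); repeat runs averaged arithmetically.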

[2] = Human Liver Microsomal Stability (Test C); assay type: in vitro ADME; conditions: for microsomal CLint: human, liver microsomes
Procedure, shortened: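 Human liver microsome incubation per the Wernevik et al. integrated DMPK panel protocol. Intrinsic clearance reported as CLint in μl/min/mg protein, averaged arithmetically over repeat runs.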

[3] = Human Hepatocyte Stability (Test D); assay type: in vitro ADME; conditions: geometric mean if run multiple times; for hepatocyte CLint at 1 µM: human, cryopreserved pooled human hepatocytes (LiverPool 10-Donor)
Procedure, shortened: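 Pooled 10-donor cryopreserved human hepatocytes (≥80% viable) in L-15 medium at 0.25×10^6 cells per 0.25 mL well. Compound added from 100 μM acetonitrile solution; incubated at 37 °C with shaking, acetonitrile-quenched, LC-MS analysed. Clint (μL/min/10^6 cells) from ln % parent vs time slope; geometric mean of repeat runs.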

[4] = Rat Hepatocyte Stability (Test E); assay type: in vitro ADME; conditions: geometric mean if run multiple times; for hepatocyte CLint: rat, hepatocytes
Procedure, shortened: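 Run per the published AstraZeneca-type rat hepatocyte stability protocol (Wernevik et al. panel). Values are mean intrinsic clearance, Clint in μl/min/10^6 cells; geometric mean used for repeated runs.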

[5] = Solubility (Test F); assay type: physicochemical; conditions: arithmetic mean if run multiple times
Method: The assay was conducted according to the Solubility Assay described in pages 164-167 of Wernevik, J. et al., “A Fully Integrated Assay Panel for Early Drug Metabolism and Pharmacokinetics Profiling”, Assay and Drug Development Technologies, 2020, 18(4), 157-179. Data are reported in Table 36 as solubility ([…]. Where the assay was run multiple times for the same compound, the arithmetic mean is reported.

[6] = target: T1, human RXFP1 (Homo sapiens, UniProt Q9HBX9); assay: RXFP1 Hu cAMP (Test A); assay type: cell-based; set-up: expressed in transfected cells; host or cells: Jump-In T-REx CHO-K1 cells (ThermoFisher), induced with 10 ng/ml doxycycline for 24 h; conditions: RXFP1 Hu cAMP; for EC50: read-out: Test A EC50
T1 sequence (Q9HBX9 1-757): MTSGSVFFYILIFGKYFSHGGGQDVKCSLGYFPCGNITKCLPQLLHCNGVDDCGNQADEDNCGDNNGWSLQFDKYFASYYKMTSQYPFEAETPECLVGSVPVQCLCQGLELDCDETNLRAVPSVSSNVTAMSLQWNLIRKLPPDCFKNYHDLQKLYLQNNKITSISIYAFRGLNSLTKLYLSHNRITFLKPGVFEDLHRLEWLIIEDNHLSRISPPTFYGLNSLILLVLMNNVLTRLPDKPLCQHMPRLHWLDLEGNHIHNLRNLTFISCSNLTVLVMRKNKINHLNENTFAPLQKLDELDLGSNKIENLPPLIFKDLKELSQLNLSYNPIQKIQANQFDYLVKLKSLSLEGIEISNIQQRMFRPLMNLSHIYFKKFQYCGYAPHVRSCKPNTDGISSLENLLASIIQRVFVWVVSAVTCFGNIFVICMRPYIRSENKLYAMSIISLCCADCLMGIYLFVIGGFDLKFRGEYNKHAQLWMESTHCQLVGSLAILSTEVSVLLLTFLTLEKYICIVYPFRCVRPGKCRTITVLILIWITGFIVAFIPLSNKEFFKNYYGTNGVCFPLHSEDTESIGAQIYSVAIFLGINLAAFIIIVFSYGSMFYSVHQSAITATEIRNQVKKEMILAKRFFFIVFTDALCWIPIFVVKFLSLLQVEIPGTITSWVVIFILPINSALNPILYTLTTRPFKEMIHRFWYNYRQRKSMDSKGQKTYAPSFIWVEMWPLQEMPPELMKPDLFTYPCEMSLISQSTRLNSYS
Procedure, shortened: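 Read-out is HTRF signal, inversely proportional to cAMP, converted to cAMP amount by standard curve. Stimulation occurred in inducible CHO-K1 cells expressing the human receptor with phosphodiesterases blocked by 0.5 mM IBMX.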

Structure (SMILES)	Test B Human Plasma Protein Binding (% free) [1] [% free]	microsomal CLint [2] [µL/min/mg]	hepatocyte CLint at 1 µM [3] [µL/min/1e6 cells]	hepatocyte CLint [4] [µL/min/1e6 cells]	solubility [5] [µM]	Test A Sinf [6] [%]	EC50 [6] [nM]	Test C Human Liver Microsomal Stability Clint ([2]; human liver microsomes) [µL/min/mg]	Test D Human Hepatocyte Stability Clint ([3]; human hepatocytes) [μL/min/10^6 cells]	Test E Rat Hepatocyte Stability Clint ([4]; rat hepatocytes) [μL/min/10^6 cells]
COc1cc(F)c(O[C@H]2CC[C@@](C)(C(=O)O)CC2)cc1C(=O)N[C@@H]1[C@H]2CC[C@H](C2)[C@@H]1C(=O)NCC1(F)CCOCC1 [Example 146, (1S,4s)-4-(2-Fluoro-5-(((1S,2R,3S,4R)-3-(((4-fluorotetrahydro-2H-pyran-4-yl)methyl)carbamoyl)bicyclo[2.2.1]heptan-2-yl)carbamoyl)-4-methoxyphenoxy)-1-methylcyclohexane-1-carboxylic acid]	24	< 3	< 1	14	1000 (≈ 579 µg/mL)	87	> 1900	–	–	–
COc1cc(F)c(-c2ccc(S(N)(=O)=O)cc2)cc1C(=O)N[C@@H]1[C@H]2CC[C@H](C2)[C@@H]1C(=O)Nc1cccc(S(=O)(=O)C(F)(F)F)c1 [Example 248]	<3.3	74	18	32	2 (≈ 1.34 µg/mL)	108	220	–	–	–
COc1cc(F)c(-c2cnn(CC(=O)O)c2)cc1C(=O)N[C@H]1[C@@H](C(=O)Nc2cccc(S(=O)(=O)C(F)(F)F)c2)[C@@H]2C=C[C@H]1C2 [Example 271, 2-(4-(2-Fluoro-4-methoxy-5-(((1R,2R,3S,4S)-3-((3-((trifluoromethyl)sulfonyl)phenyl)carbamoyl)bicyclo[2.2.1]hept-5-en-2-yl)carbamoyl)phenyl)-1H-pyrazol-1-yl)acetic acid]	0.81	< 3	3.7	7	920 (≈ 586 µg/mL)	98	–	–	–	–
COc1cc(F)c(O[C@H]2CC[C@@](C)(C(=O)O)CC2)cc1C(=O)N[C@@H]1COCC[C@@H]1C(=O)Nc1cccc(S(=O)(=O)C(F)(F)F)c1 (relative stereo) [Example 559, (1R,4s)-4-(2-Fluoro-4-methoxy-5-(((3S*,4S*)-4-((3-((trifluoromethyl)sulfonyl)phenyl)carbamoyl)tetrahydro-2H-pyran-3-yl)carbamoyl)phenoxy)-1-methylcyclohexane-1-carboxylic acid]	2.5	–	–	–	900 (≈ 595 µg/mL)	102	1200	9.4	4.1	8.4
COc1cc(F)c(-c2ccc(C(=O)O)cc2)cc1C(=O)N[C@H]1[C@@H](C(=O)Nc2cc(F)cc(C(F)(F)F)c2)[C@@H]2C=C[C@H]1C2 (racemic) [Example 308]	0.16	4.9	14	33	> 1000	109	–	–	–	–
COc1cc(Cl)c(O[C@H]2CC[C@@](C)(C(=O)O)CC2)cc1C(=O)N[C@@H]1[C@H]2CC[C@H](C2)[C@@H]1C(=O)NCC(C)(C)C(F)(F)F [Example 409]	3.4	18	3.1	7.1	960 (≈ 579 µg/mL)	107	15	–	–	–
COc1cc(F)c(OC2CCC(C)(C(=O)O)CC2)cc1C(=O)NC1C2CCC(CC2)C1C(=O)NCC1(C)CCC1 (single isomer, unassigned) [Example 542, (1R,4s)-4-(2-Fluoro-4-methoxy-5-(((2S*,3R*)-3-(((1-methylcyclobutyl)methyl)carbamoyl)bicyclo[2.2.2]octan-2-yl)carbamoyl)phenoxy)-1-methylcyclohexane-1-carboxylic acid]	2.5	66	32	12	800 (≈ 447 µg/mL)	110	11	–	–	–
CC(C)Oc1cc(F)c(O[C@H]2CC[C@@](CO)(C(=O)O)CC2)cc1C(=O)N[C@@H]1[C@H]2CC[C@H](C2)[C@@H]1C(=O)NCC1(C)CCC1 [Example 486, (1S,4s)-4-(2-Fluoro-4-isopropoxy-5-(((1S,2R,3S,4R)-3-(((1-methylcyclobutyl)methyl)carbamoyl)bicyclo[2.2.1]heptan-2-yl)carbamoyl)phenoxy)-1-(hydroxymethyl)cyclohexane-1-carboxylic acid]	6.8	35	22	28	950 (≈ 559 µg/mL)	107	7.6	–	–	–
COc1cc(F)c(-c2ccc(F)c(C(=O)O)c2)cc1C(=O)N[C@H]1[C@@H](C(=O)Nc2cccc(S(=O)(=O)C(F)(F)F)c2)[C@@H]2C=C[C@H]1C2 (racemic) [Example 231]	<0.31	< 3	7.7	13	17 (≈ 11.1 µg/mL)	112	480	–	–	–
COc1cc(C#N)c(O[C@H]2CC[C@@](C)(C(=O)O)CC2)cc1C(=O)N[C@@H]1[C@H]2CC[C@H](C2)[C@@H]1C(=O)NC(C)(C)CF [Example 77]	21	4	3.7	12	650 (≈ 353 µg/mL)	108	–	–	–	–
COc1cc(F)c(O[C@H]2CC[C@@H](C(=O)O)CC2)cc1C(=O)NC1=C(C(=O)Nc2ccc(F)c(C(F)(F)F)c2)CCCC1 [Example 213, (1s,4s)-4-(2-Fluoro-5-((2-((4-fluoro-3-(trifluoromethyl)phenyl)carbamoyl)cyclohex-1-en-1-yl)carbamoyl)-4-methoxyphenoxy)cyclohexane-1-carboxylic acid]	0.18	16	4	8	6.5 (≈ 3.88 µg/mL)	98	180	–	–	–
